Measured values taken from patent publication US5716934A, “Eck receptor ligands” (Amgen Inc., priority 1995, dated 1998).
One block for each substance: values may come before it.

Key:
[1] = tested on: eck receptor (p130^eck); experiment: p130eck autophosphorylation in LIM 2405 cells; type: cell-based, human; details: intact LIM 2405 cells, 10-15 min at 37° C.
Description: The LIM 2405 colorectal carcinoma cell line (Whitehead et al. Immunol. and Cell Biol. 70, 227 (1992)) was maintained in RPMI 1640 containing 5% FBS, 1 μg/ml insulin, 10 μg/ml hydrocortisone and 10 μM α-thioglycerol, and subpassaged by trypsination and dilution (1:5) into fresh media. Prior to assay 2.5×10^5 LIM 2405 cells were seeded into 6-well dishes (Falcon #3046) and incubated for 24 hr at 37° C. The media was discarded and replaced with serum-free RPMI 1640 containing 0.03% BSA, 1 μg/ml insulin, 10 μg/ml hydrocortisone and 10 μM α-thioglycerol, then incubated for 12-18 hr. In some experiments the cell cultures were labelled with ^32 P-orthophosphate (2 mCi/ml) in phosphate-free RPMI 1640 (Flow) for 2-3 hr prior to treatment. Growth factor stock solutions were prediluted at varying concentrations into 2.0 ml of serum-free media, then warmed to 37° C. Cell cultures were removed from the incubator, and the supernatant media discarded. Treatments were promptly added and the cell cultures incubated at 37° C. for 10-15 min. The cultures were then removed from the incubator, placed on ice, and the culture supernatant aspirated.
The treated cell cultures were chilled to 0° C. then washed once with ice-cold PBS (GIBCO). The residual PBS was aspirated and the cells were lysed by the addition of 1.0 ml of ice-cold RIPA buffer (10 mM sodium phosphate, pH 7.4, 150 mM sodium chloride, 0.1% sodium dodecyl sulfate, 1% NP-40, 1% deoxycholate, 1% Trasylol, 2 mM EDTA, 50 mM sodium fluoride and 100 mM sodium orthovanadate). After a 10 min incubation the lysates were transferred to 1.5 ml tubes and clarified by centrifugation for 30 min at 10,000×g. The clarified lysate supernatants were transferred to new tubes and immunoprecipitated with 1.0 μg/ml of affinity purified rabbit anti-Eck C-terminal domain antibody for 2 hr at 0° C. Immune complexes were adsorbed to Protein-G Sepharose beads (Pharmacia) at 4° C. for 30 min, washed twice with ice-cold RIPA buffer, once with 0.1M Tris-HCl, pH 8.0, containing 0.5M LiCl, and once with RIPA. The resulting immunoprecipitates were solubilized with SDS-PAGE sample buffer and stored for further analysis.
The anti-eck immunoprecipitates from treated and untreated LIM 2405 cell lysates were resolved on 7.5% polyacrylamide gels as previously described (Boyle et al. Meth. Enzymol. 201, 110 (1991)). […] Immune complexes were detected by chemiluminescent exposure (ECL, Amersham) to Kodak X-OMAT X-ray film at room temperature for 0.5-5 min.
Eck receptor immunoprecipitates from ^32 P-labelled LIM 2405 cells were resolved by SDS-PAGE, and the gel dried directly without fixation. After exposure to X-ray film the labelled eck receptor band was isolated and phosphoamino acid content determined as described (Boyle et al. Meth. Enzymol. 201, 110 (1991))

[2] = tested on: granulation tissue in subcutaneously implanted wound chambers; experiment: Rat wound chamber assay (granulation tissue formation); type: in vivo
Description: Male Sprague-Dawley specific pathogen free rats (300-350 g; Charles River Breeding Laboratories, Inc.) were used for this study. Rats were anesthetized with sodium pentobarbital (50 mg/kg body weight) by intraperitoneal injection. Using aseptic surgical technique, a 3 cm midline incision was made on the dorsal surface of the rat. A single pocket was formed under the panniculus carnosis by blunt dissection on one side of the animal. A 3 cm long×1 cm diameter sterile stainless steel wire mesh cylinder was then inserted subcutaneously. The wound chambers used were similar to those described by Schilling et. al. (Surgery 46, 702-710 (1959)) and utilized by Hunt et. al. (Am. J. Surg. 114, 302-307 (1967)) as wound healing models. The incision was closed with wound clips. The rats survived the operation well with no evidence of postoperative discomfort. Beginning 3 days after wound chamber implantation, the rats were randomly divided into 5 groups. At this time daily injections of 1) 10 μg CHO-derived EBP, 2) 1 μg CHO-derived EBP, 3) 8 μg E. coli derived EBP, 4) 5 μg recombinant platelet derived growth factor (PDGF), or 5) 0.1 ml sterile PBS and 1 mM CHAPS were begun and continued for a total of 9 days. The injections were made directly into the wound chamber through a silicone septum at the outer edge of the chamber. Twelve days after chamber implantation, the rats were sacrificed by CO2 asphyxiation. Immediately after sacrifice, the chambers were removed surgically and carefully opened. The enclosed granulation tissue was then weighed, and stored at -70° C. for future processing.
Granulation tissue samples were thawed and homogenized with a Polytron homogenizer in 2 ml of ice-cold distilled water for approximately 1 minute. Next, 2 ml of ice-cold 10% trichloroacetic acid was added to the homogenate and incubated at 4° C. for 1 hour. The TCA-precipitated samples were centrifuged (500 g, 10 minutes) at 4° C., washed once with 2 ml of ice-cold 5% TCA, and finally washed with 2 ml of ice-cold 95% ethanol containing 50 mM sodium acetate. Samples were defatted twice with 2 ml of ethanol:ether (3:1, v/v) at 20° C. After each defatting procedure, samples were centrifuged (500×g, 10 minutes) and the supernate discarded. The pellet was then dissolved in 1N sodium hydroxide and brought up to a volume of 10 ml.
Total protein was determined by taking an aliquot of the solubilized granulation tissue and assaying the sample according to the method of Bradford (Anal. Biochem. 72, 248-251 (1976)) Bovine serum albumin (Sigma Chemical Co., St. Louis, Mo.) was used for a protein standard curve.
Total DNA content was determined as deoxy-ribose by the colorimetric method of Burton (Biochem. J. 62, 315 (1956)). Briefly, a 1 ml aliquot of the solubilized sample (in 1N NaOH) was neutralized with the addition of 0.5 ml of 2N HCl. A 1 ml aliquot of the neutralized solution was extracted in 10% perchloric acid at 90° C. for 15 minutes. A 1 ml portion of the final extract was added to 2 ml activated diphenylamine (Sigma Chemical, St. Louis, Mo.) reagent and absorbance at 600 nm was measured after overnight incubation at room temperature. Hydrolyzed calf thymus DNA (Sigma) was used to construct the standard curve. The DNA content was measured as a rough index of the number of cells in the wound chamber, with the realization that cell type and cell cycle status also influence DNA content.
Total glycosaminoglycans (GAGs) were determined using chondroitin sulfate as a standard. A spectrophotometric assay for GAGs was run utilizing a change in absorption spectrum of the dye 1,9- dimethyl methylene blue (Farndale et al. Conn. Tiss. Res. 9, 247-248 (1982)).
Total collagen content was determined as hydroxyproline (an index of collagen content) after hydrolysis of the solubilized granulation tissue in 6N HCl at 110° C. for 24 hours. […]

[3] = tested on: extracellular domain of the kit receptor; experiment: BIAcore binding to surfaces activated with kit receptor extracellular domain
From the text: SDS-PAGE analysis of the fractions from this column confirmed that EBP was co-eluted with the receptor binding activity.

[4] = 5 ug per chamber per day x 9 days, harvest day 12, mean ± SEM
[5] = 5 ug per chamber per day x 9 days, harvest day 12, mean ± SEM, listed as rPDGF

Substance: EGF: growth factor used to treat LIM 2405 cells as specificity control [reference compound]
eck receptor phosphorylation [1]: nor does EGF treatment induce eck phosphorylation

Substance: PDGF [reference compound]
DNA [2, 4]: 356 ± 64 µg | HYDROXY-PROLINE [2, 4]: 478.4 ± 85.9 µg | TOTAL GYLCOSAMINO-GLYCANS [2, 4]: 725.2 ± 104.4 µg | TOTAL PROTEIN [2, 4]: 7.46 ± 1.52 mg | WET WEIGHT [2, 4]: 417.4 ± 81.8 mg | DNA [2, 5]: significantly increased | TOTAL GYLCOSAMINO-GLYCANS [2, 5]: significantly increased | TOTAL PROTEIN [2, 5]: significantly increased | WET WEIGHT [2, 5]: significantly increased | increase in hydroxyproline content over control chambers ([2]; PDGF treated chambers (5 μg per day)): 82%

binding to BIAcore surfaces activated with the extracellular domain of the kit receptor [3]: could bind
Substance: rSCF: the kit ligand [reference compound]
